Assay results taken from US20100273651A1 (priority 2007, published 2010).
Read-outs that look alike come from different tables or passages of the source.

Tests used:
[1] = test system: Leptno; assay: Comparative experiments: growth of Leptno (microtest, method not described); type: cell-based; settings: comparative experiments against prior-art compound
[2] = test system: Pyricularia oryzae; type: cell-based
[3] = test system: Phakopsora pachyrhizi; assay: Use Example 1: curative activity against soybean rust, greenhouse (Phakpa K1); type: in vivo; settings: soybean seedlings sprayed 24 h after inoculation, visual rating after 14 days, untreated 90
Procedure: (§1) The active compounds were prepared separately or jointly as a stock solution comprising 25 mg of active compound which was made up to 10 ml using a mixture of acetone and/or DMSO and the emulsifier Uniperolt EL (wetting agent having emulsifying and dispersing action based on ethoxylated alkyl phenols) in a volume ratio of solvent/emulsifier of 99:1. The mixture was then made up to 100 ml with water. This stock solution was diluted with the solvent/emulsifier/water mixture described to give the concentration of active compounds stated below. Alternatively, the active compounds were used as a commercial finished formulation and diluted with water to the concentration of active compounds stated.
Leaves of potted soybean seedlings were inoculated with a spore suspension of soybean rust (Phakpsora pachyrhizi). The pots were then placed in a chamber with high atmospheric humidity (90 to 95%) and at 23 to 27° C. for 24 hours. During this time, the spores germinated and the germ tubes penetrated into the leaf tissue. The infected plants were then sprayed to runoff point with the active compound solution described above at the active compound concentration stated below. After the spray coating had dried on, the test plants were cultivated in a greenhouse at temperatures between 23 and 27° C. and 60 to 80% relative atmospheric humidity for 14 days. The extent of the rust fungus development on the leaves was then determined visually in percent infection.

[4] = test system: Septoria tritici; assay: Use Example 2: protective activity against Septoria leaf spot of wheat, greenhouse (Septtr P2); type: in vivo; settings: wheat seedlings inoculated 2 days after spraying, % infection of total leaf area after 21 days, untreated 90
Procedure: as §1
Leaves of potted wheat seedlings were sprayed to runoff point with an aqueous suspension having the active compound concentration stated below. 2 days after the spray coating had dried on, they were inoculated with an aqueous spore suspension of Septoria tritici. The test plants were then placed in a greenhouse at temperatures between 20 and 24° C. and a relative atmospheric humidity close to 100% for 4 days and then at temperatures between 18 and 22° C. and an atmospheric humidity of about 70%. After 21 days, the extent of the development of the disease was determined visually in % infection of the total leaf area.

[5] = test system: Septoria tritici; assay: Use example No. 3: activity against Septoria tritici in the microtiter test (Septtr); type: cell-based; settings: relative growth vs active compound-free control (100%), 405 nm, day 7
[6] = relative growth vs active compound-free control (100%), 405 nm, day 7
[7] = comparative experiments against prior-art compound

Question: Which results are given for [Na+].[S-]c1ncnn1C[C@]1(c2ccccc2Cl)O[C@@H]1c1ccc(Cl)cc1Cl (relative stereo) [Compound 13, sodium rel-(2S,3R)-2-(2-chlorophenyl)-3-(2,4-dichlorophenyl)oxiran-2-ylethyl]-1H-[1,2,4]triazole-5-thiolate]?
Answer: Growth in % at 31 ppm for Leptno [1]: 19%; Growth in % at 31 ppm for Pyrior [2, 6]: 19%

Question: Which results are given for S=c1[nH]cnn1C[C@]1(c2ccccc2)O[C@@H]1c1ccc(Cl)c(Cl)c1Cl (relative stereo) [Compound 4, 1-[rel-(2S,3R)-2-phenyl-3-(2,3,4-trichlorophenyl)oxiran-2-ylmethyl]-1H-1,2,4-triazole-5(4H)-thione]?
Answer: Infection in % at 150 ppm for Phakpa K1 [3]: 0%; Infection in % at 150 ppm for Septtr P2 [4]: 15%

Question: With “1-[rel-(2S,3R)-2-(2-chlorophenyl)-3-(2,4-dichlorophenyl)oxiran-2-ylmethyl]-1H-1,2,4-triazole-5(4H-6-thione [Compound 2]” as the molecule, how does the “Infection in % at 150 ppm for Phakpa K1” value [3] read?
Answer: The value was 3%.

Question: What about the “Infection in % at 150 ppm for Septtr P2” value [4] of the same molecule?
Answer: Its value is 10%.

Question: And the “Growth in % at 31 ppm for Pyrior” value [2, 6]?
Answer: Its value is 5%.

Question: How did the “Growth in % at 31 ppm for Septtr” value [5] turn out when “1,2-bis[1-rel-(2S,3R)-2-(2-chlorophenyl)-3-(2,4-dichlorophenyl)oxiran-2-ylmethyl-1H-1,2,4-triazole-5-yl]disulfane [Compound 14]” was run?
Answer: The value was 4%.

Question: For N#CSc1ncnn1C[C@]1(c2ccccc2Cl)O[C@@H]1c1ccc(Cl)cc1Cl (relative stereo) [Compound 12, 1-[rel-(2S,3R)-2-(2-chlorophenyl)-3-(2,4-dichlorophenyl)oxiran-2-ylmethyl]-5-thlocyanato-1H-1,2,4-triazole], which “Infection in % at 150 ppm for Phakpa K1” value [3] is on record?
Answer: The value was 0%.

Question: What about the “Infection in % at 150 ppm for Septtr P2” value [4] of the same molecule?
Answer: Its value is 10%.

Question: How did the “Growth in % at 31 ppm for Pyrior” value [2, 6] turn out when COC(=O)Sc1ncnn1C[C@]1(c2ccccc2Cl)O[C@@H]1c1ccc(Cl)cc1Cl (relative stereo) [Compound 11, S-{2-[2-(2-chlorophenyl)-3-(2,4-dichlorophenyl)oxiranylmethyl]-2H-[1,2,4]triazole-3-yl}methyl rel-(2S,3R)-thiocarbonate] was run?
Answer: The value was 3%.

Question: For CS(=O)(=O)c1ncnn1C[C@]1(c2ccccc2Cl)O[C@@H]1c1ccc(Cl)cc1Cl (relative stereo) [Compound 8, 1-[rel-(2S,3R)-2-(2-chlorophenyl)-3-(2,4-dichlorophenyl)-oxiran-2-ylmethyl]-5-(methylsulfonyl)-1H-1,2,4-triazole], which “Growth in % at 31 ppm for Pyrior” value [2, 6] is on record?
Answer: The value was 8%.

Question: What does the source list for CSc1ncnn1C[C@]1(c2ccccc2Cl)O[C@@H]1c1ccc(Cl)cc1Cl (relative stereo) [Compound 5, 1-[rel-(2S,3R)-2-(2-chlorophenyl)-3-(2,4-dichlorophenyl)oxiran-2-ylmethyl]-5-(methylthio)-1H-1,2,4-triazole]?
Answer: Growth in % at 31 ppm for Septtr [5]: 0%; Growth in % at 31 ppm for Pyrior [2, 7]: 0%

Question: How did the “Infection in % at 600 ppm for Phakpa K1” value ([3]; 600 ppm) turn out when CSc1ncnn1C[C@]1(c2ccc(F)cc2)O[C@@H]1c1cccc(Cl)c1F (relative stereo) [Compound 7, 1-[rel-(2S,3R)-3-(3-chloro-2-fluorophenyl)-2-(4-fluorophenyl)oxiran-2-ylmethyl]-5-(methylthio)-1,2,4-triazole] was run?
Answer: Its value is 0%.

Question: CC(=O)Sc1ncnn1C[C@]1(c2ccccc2)O[C@@H]1c1ccc(Cl)c(Cl)c1Cl (relative stereo) [Compound 10, S-1-[rel-(2S,3R)-2-phenyl)-3-(2,3,4-trichlorophenyl)oxiran-2-ylmethyl]-1H-1,2,4-triazole-5-yl ethanethioate] was tested. Which “Growth in % at 31 ppm for Septtr” value [5] did it give?
Answer: Its value is 5%.

Question: How did the “Growth in % at 31 ppm for Leptno” value [1] turn out when [Na+].[S-]c1ncnn1C[C@]1(c2ccccc2Cl)O[C@@H]1c1ccccc1Cl [WO9741107, p. 50 (5th compound), reference compound] was run?
Answer: Its value is 51%.

Question: How did the “Growth in % at 31 ppm for Pyrior” value [2, 7] turn out when CSc1ncnn1C[C@]1(c2ccccc2Cl)O[C@@H]1c1ccccc1Cl [WO9638440, p. 14 (5th compound), reference compound] was run?
Answer: The value was 83%.

Question: How did the “Growth in % at 31 ppm for Pyrior” value [2, 6] turn out when CC(=O)Sc1ncnn1C[C@]1(c2ccccc2Cl)O[C@@H]1c1ccc(Cl)cc1Cl (relative stereo) [Compound 9, S-1-[rel-(2S,3R)-2-(2-chlorophenyl)-3-(2,4-dichorophenyl)oxiran-2-ylmethyl]-1H-1,2,4-triazole-5-ylethanethioate] was run?
Answer: Its value is 1%.
